Measurements: patent publication US20150366962A1 (priority 2014, published 2015)

Tested on: H5 (VN/04), H11 and H12 subtype HAs
Design: species or system mice
Details: mouse, in vivo

SMILES: Cn1c2ccccc2c2nc(SCC(=O)NC3CCCCC3)n(-c3ccccc3)c(=O)c21 [Compound 1Z105]
- IgG subtype profile (IgG2a/IgG1) to H5 subtype HA: induced primarily IgG1

SMILES: CCCCCCCCC=CCCCCCCCC(=O)OCC(COP(=O)(O)OCCNC(=O)c1ccc(Cn2c(=O)[nH]c3c(N)nc(OCCOC)nc32)cc1)OC(=O)CCCCCCCC=CCCCCCCCC (centres unmarked) [Compound 1V270]
- IgG subtype profile (IgG2a/IgG1) to H5 subtype HA: inducing IgG2a
- IgG titers reacting to H11 subtype versus unadjuvanted control: significantly better than the unadjuvanted control
- IgG titers reacting to H12 subtype versus unadjuvanted control: significantly better than the unadjuvanted control
- serum IgG reactivity to the H5 subtype HA (VN/04) versus no adjuvant: significantly higher reactivity
